# Source: patent publication US20150136150A1, “DURABLE SKIN MARKING COMPOSITIONS” (OP-MARKS, INC., priority 2011, published 2015)
# Like-named read-outs stand apart in the source and are kept apart here.
# What was measured:
# [1] = cited from earlier work
# [2] = Solvent miscibility and compatibility with butyl cyanoacrylate; assay type: physicochemical; parameters: key: V = slightly viscous; VV = viscous; VVV = very viscous; Lyr = layers; Pl = pale; Lt = light; Y = yellow; RX = reacts; Gry = grey; Brn = brown; Blk = black; conditions: 3 ml solvent + 3 ml BCA
# Experimental: (§1) Next, the solvents were tested for miscibility and compatibility with cyanoacrylate esters. Briefly, beginning with 3 ml samples each of butyl cyanoacrylate (BCA), octyl cyanoacrylate (OCA) and ethoxyethyl cyanoacrylate (EECA), 3 ml of each solvent was added drop-wise to each cyanoacrylate sample and agitated to aid mixing. Observations of the samples were taken immediately and then at regular intervals over 7 days. […] The remaining 10 solvents were ranked according to their compatibility with the cyanoacrylate esters based primarily on their compatibility with BCA over 7 days, secondarily on their compatibility with OCA, and finally on their miscibility with EECA.
# rat = conditions: cited from earlier work
# [3] = Solvent miscibility and compatibility with cyanoacrylate esters (overall); assay type: physicochemical; conditions: observations over 7 days
# Experimental: as §1
# [4] = relative volatility compared to butyl acetate; cited from earlier work
# [5] = Solvent compatibility with viscosity-increasing polymer, viscosity of solution: CAB; assay type: physicochemical; parameters: unit not given here; conditions: polymer added at 5% by weight, up to 3 days agitation
# [6] = Solvent compatibility with viscosity-increasing polymer, viscosity of solution: MMA; assay type: physicochemical; parameters: unit not given here; conditions: polymer added at 5% by weight, up to 3 days agitation
# [7] = Solvent miscibility and compatibility with octyl cyanoacrylate; assay type: physicochemical; parameters: key: V = slightly viscous; VV = viscous; VVV = very viscous; Lyr = layers; Pl = pale; Lt = light; Y = yellow; RX = reacts; Gry = grey; Brn = brown; Blk = black; conditions: 3 ml solvent + 3 ml OCA
# Experimental: as §1
# [8] = Colorant solubility in solvent; conditions: 10 g solvent added to 0.4 g D&C Violet #2, shaken 30 minutes, stood 30 minutes
# Experimental: For the remaining solvents, colorant solubility was assessed in terms of the solubility of D&C Violet #2. Briefly, 10 g of each of the solvents listed in Table 5 was added to 0.4 g of dye in 12 ml test tubes. The samples were shaken for 30 minutes then allowed to stand for 30 minutes. After standing, 5 ml of the top layer was removed and weighed into pre-weighed aluminum weigh boats where the solvent was allowed to evaporate before re-weighing.
# [9] = Solvent miscibility and compatibility with ethoxyethyl cyanoacrylate; assay type: physicochemical; conditions: 3 ml solvent + 3 ml EECA
# Experimental: as §1
# [10] = Solvent compatibility with viscosity-increasing polymer, viscosity of solution: IB; assay type: physicochemical
# [11] = Solvent compatibility with viscosity-increasing polymer, viscosity of solution: VEE; assay type: physicochemical; parameters: unit not given here; conditions: polymer added at 5% by weight, up to 3 days agitation
structure (smiles),measurement,setting,value
C=CC(=C)C [Isoprene],VP (vapor pressure),[1]; at 20 ° C.,560@20 mmHg
same,"BCA compatibility, Time 0",[2]; time 0,RX
same,"TOX (toxicity, LD50)","rat; rat, in vivo, po",2100 mg/kg
same,Reaction with the cyanoacrylate esters,[3],apparent reactions
same,VL (volatility),[4],28.6
CCCOC(C)=O [Propyl acetate],VP (vapor pressure),[1]; at 20 ° C.,25@20 mmHg
same,"TOX (toxicity, LD50)","rat; rat, in vivo, po",6640 mg/kg
same,VL (volatility),[4],3.0
OCCOCCO [Diethylene glycol],VP (vapor pressure),[1]; at 92 ° C.,1@92 mmHg
CC1CCCCC1 [Methyl cyclohexane],VP (vapor pressure),[1]; at 20 ° C.,37@20 mmHg
same,"TOX (toxicity, LD50)",rat; oral dose administered to rat,2250 mg/kg
same,VL (volatility),[4],2.99
CC(C)CC(=O)CC(C)C [Diisobutyl ketone],"TOX (toxicity, LD50)","rat; rat, in vivo, po",5750 mg/kg
"C1COCCO1 [1,4 Dioxane]",Viscosity of solution with CAB,[5],6.9
same,VP (vapor pressure),[1]; at 20 ° C.,27@20 mmHg
same,Viscosity of solution with MMA,[6],17
same,"OCA compatibility, 7 Day",[7],VVV
same,VL (volatility),[4],2.7
CCCCOCCO [Butoxyethanol],VP (vapor pressure),[1]; at 20 ° C.,0.8@20 mmHg
COCCOCCOC [2-methoxy ethyl ether],VP (vapor pressure),[1]; at 25 ° C.,3@25 mmHg
CCCCC(CC)CO (stereo not drawn) [2-ethyl hexanol],VP (vapor pressure),[1]; at 20 ° C.,0.36@20^ mmHg
same,"TOX (toxicity, LD50)","rat; rat, in vivo, po",3730 mg/kg
same,VL (volatility),[4],0.01
CCCCOC(C)=O [Butyl acetate],"TOX (toxicity, LD50)","rat; rat, in vivo, po",10768 mg/kg
same,VL (volatility),[4],1
CC(C)=O [Acetone],Viscosity of solution with CAB,[5],1.8
same,VP (vapor pressure),[1]; at 39.5 ° C.,400@39.5 mmHg
same,"BCA compatibility, 2 Day",[2],V
same,"BCA compatibility, 7 Day",[2],VV
same,Viscosity of solution with MMA,[6],2.4
same,Reaction with the cyanoacrylate esters,[3],apparent reactions
same,VL (volatility),[4],7.7
CCOCCOC(C)=O [Ethoxyethyl acetate],VP (vapor pressure),[1]; at 20 ° C.,2@20 mmHg
same,"TOX (toxicity, LD50)","rat; rat, in vivo, po",2700 mg/kg
same,VL (volatility),[4],−1
O=C1CCCCC1 [Cyclohexanone],VP (vapor pressure),[1]; at 25 ° C.,5@25 mmHg
same,"TOX (toxicity, LD50)","rat; rat, in vivo, po",1000 mg/kg
same,VL (volatility),[4],0.29
COCCO [Methoxy ethanol],VP (vapor pressure),[1]; at 20 ° C.,6.2@20 mmHg
same,"TOX (toxicity, LD50)",rat; oral dose administered to rat,2370 mg/kg
same,VL (volatility),[4],−1
"C1CCOC1 [THF, tetrahydrofuran]",Viscosity of solution with CAB,[5],3.1
same,VP (vapor pressure),[1]; at 20 ° C.,129@20 mmHg
same,Viscosity of solution with MMA,[6],5.3
same,"OCA compatibility, 1 Day",[7]; 1 Day,VV
same,"OCA compatibility, 2 Day",[7],VV
same,"OCA compatibility, 7 Day",[7],VV
same,VL (volatility),[4],8
CC(=O)OC(C)C [t-propyl acetate],VP (vapor pressure),[1]; at 25 ° C.,59@25 mmHg
same,"TOX (toxicity, LD50)",rat; oral dose administered to rat,6750 mg/kg
same,PPM dye soluble,[8],2200 PPM
CCCCCCC [Heptane],"EECA compatibility, 1 Day",[9]; 1 Day,2Lyr
same,"EECA compatibility, 2 Day",[9]; 2 Day,2Lyr
same,"EECA compatibility, 7 Day",[9]; 7 Day,2Lyr
same,"EECA compatibility, Time 0",[9]; time 0,2Lyr
same,VP (vapor pressure),[1]; at 20 ° C.,40@20 mmHg
same,"BCA compatibility, 1 Day",[2]; 1 Day,PlY
same,"BCA compatibility, 2 Day",[2],LtY
same,"BCA compatibility, 7 Day",[2],LtY
same,Dissolution of polyisobutylene,"[10]; 5% by weight, up to 3 days",partially dissolve
same,Viscosity of solution with IB,"[10]; polymer added at 5% by weight, up to 3 days agitation",11
same,"TOX (toxicity, LD50)","rat; rat, in vivo, po",3200 mg/kg
same,"OCA compatibility, 2 Day",[7],VV
same,"OCA compatibility, 7 Day",[7],VV
same,Viscosity of solution with VEE,[11],1.5
same,VL (volatility),[4],4.3
